According to US20190209506A1, “METHODS OF REDUCING OR PREVENTING OXIDATION OF LDL OR LIPID MEMBRANES IN A SUBJECT IN NEED THEREOF” (Amarin Pharmaceuticals Ireland Limited, priority 2018, published 2019):

How the values were obtained:
HUVECs = assay: NO and ONOO^− release from HUVECs exposed to oxLDL, nanosensors (Example 8); assay type: cell-based, human; details: ECs exposed to oxLDL; compared to vehicle
Experimental: Human umbilical vein endothelial cells (HUVECs) were isolated into primary cultures from female donors by Clonetics (San Diego, Calif.) and purchased as proliferating cells. All cell culture donors were healthy, with no pregnancy or prenatal complications. […] The confluent cells (4 to 5×10^5 cells/35 mm dish) were placed with minimum essential medium containing 3 mM L-arginine and 0.1 mM BH4 [(6R)-5,6,7,8-tetrahydrobiopterin]. Before experimental use, the cells (from second or third passage) were rinsed twice with Tyrode-HEPES buffer with 1.8 mM CaCl2.
Plasma was immediately separated by centrifugation at 3,000 g for 10 minutes at 4° C.
Tris-NaCl buffer was added to the dialyzed LDL to adjust the protein concentration to 30 mg/mL. A 1-mL aliquot of 20 μM CuSO4 was added to 1 mL of dialyzed normal LDL.
Concurrent measurements of NO and ONOO^− were performed with tandem electrochemical nanosensors combined into one working unit with a total diameter of 200-400 nm. Their design was based on previously developed and chemically modified carbon-fiber technology. […]
The amperometric method (with a response time of 0.1 ms) provides a quantitative signal (current) that is directly proportional to changes (from basal levels) in NO or ONOO^− concentration. […] Basal NO or ONOO^− levels were measured by differential pulse voltammetry in separate experiments. […]

[1] = LOOH formation in membrane vesicles, fatty acid comparison (Example 16); assay type: biochemical; details: 5 μM
Experimental: Iodometric approaches were used to measure in vitro LOOH formation in membrane vesicles reconstituted as binary mixtures of cholesterol and dilinoleoyl phosphatidylcholine. Vesicles were prepared at a cholesterol-to-phospholipid mole ratio of 0.6:1 and subjected to autoxidation (e.g., lipid oxidation) at 37° C. Lipid oxidation was stimulated with 0.1 μM copper sulfate for 48 hours. All FAs were delivered at 5 and 10 μM.

[2] = Glucose- and peroxidation-induced cholesterol domain formation, small angle x-ray diffraction (Example 4); details: 1:30 drug-to-phospholipid, glucose 200 mg/dL
Experimental: Samples were shell-dried under nitrogen gas and placed under vacuum for 1 h to remove residual solvent. […] Lipid suspensions were then vortexed for 3 min at ambient temperature to form MLVs. […] Membrane lipid vesicles were oriented for x-ray diffraction analysis as described by others (e.g., Herbette et al., Biophys. […] Briefly, a 100 μL aliquot (containing 250 μg MLV) was aspirated from each sample and transferred to a Lucite® sedimentation cell fitted with an aluminum foil substrate upon which a given sample could be collected by centrifugation. Samples were then loaded into a Sorvall AH-629 swinging bucket rotor (DuPont Corp., Wilmington, Del.) and centrifuged at 35,000 g, 5° C., for 90 min. After centrifugal orientation, sample supernatants were aspirated and aluminum foil substrates, each supporting a single membrane pellet, were removed from the sedimentation cells. […] The d-space for any given membrane multibilayer is a measurement of the unit cell periodicity of the membrane lipid bilayer (e.g., the distance from the center of one lipid bilayer to the next including surface hydration), and is calculated from Bragg's Law, […], where h is the diffraction order, λ is the wavelength of the x-ray radiation (1.54 Å), d is the membrane lipid bilayer unit cell periodicity, and θ is the Bragg angle equal to one-half the angle between the incident beam and scattered beam. […]

[3] = LOOH formation in membrane vesicles, EPA dose dependence (Example 18); assay type: biochemical; details: after four hours
Excerpt: Iodometric analyses were used to measure LOOH formation in membrane vesicles reconstituted as binary mixtures of cholesterol and dilinoleoyl phosphatidylcholine.

Human sdLDL particles = assay: Kinetic model of MDA formation in sdLDL oxidation (Example 15); assay type: biochemical
Experimental: Human sdLDL particles were isolated and incubated in vitro with vehicle or with varying concentrations of EPA, DHA, or EPA and DHA. Once incubated, copper sulfate (CuSO4) was added to induce oxidation of the sdLDL particles. The sdLDL particles were then assayed for the detection of malondialdehyde (MDA), a known marker of oxidation.
Various kinetic models were evaluated and eventually fit to the sdLDL oxidation data to describe the concentration of MDA in each sample. Both population parameter estimates and associated variabilities were generated for the formation of MDA (Kf) and degradation of MDA (Ke) rates.
The final kinetic model is a 1 compartment model having a first order Ke and an additive first order Kf.

Compound | increase in NO release (HUVECs) | activity of EPA greater than ALA by [1] | activity of EPA greater than DHA by [1] | activity of EPA greater than DPA by [1] | activity of EPA greater than ETE by [1] | reduction of LOOH levels compared to the vehicle ([1]; 0.1 μM copper sulfate, 48 hours) | inhibition of relative cholesterol domain peak intensity ([2]; 96-hour time point, vs vehicle or vitamin E) | inhibition of LOOH formation ([3]; 1.0 μM, 10 μM copper sulfate) | IC50 ([3]; read-out: half-maximum concentration of LOOH inhibition) | inhibition of LOOH formation ([3]; maximum concentration (range 1.0 to 10.0 μM)) | reduction of Kf (formation rate of MDA) (Human sdLDL particles; 5 μM, after 8 hours) | reduction of Kf predicted by the kinetic model (Human sdLDL particles; 10 μM alone, predicted) | effect on cholesterol domain formation compared to control ([2]; any experimental time point)
CC/C=C\C/C=C\C/C=C\C/C=C\C/C=C\CCCC(=O)O [EPA, cis-5,8,11,14,17-eicosapentaenoic acid] | 45% | 213% | 279% | 121% | 174% | 77% | more than 99% | 6% | ~6 µM | 74% | 54% | 73% | –
Cc1c(C)c2c(c(C)c1O)CC[C@@](C)(CCC[C@H](C)CCC[C@H](C)CCCC(C)C)O2 [vitamin E, α-tocopherol, reference compound] | – | – | – | – | – | – | – | – | – | – | – | – | no significant effect on cholesterol domain formation
